Measured values taken from patent US20060165766A1, “Method for preparing liposome formulations with a predefined release profile” (priority 2001, published 2006).
Several values for one entry are separate records, joined by “and”; a condition that tells them apart may be missing. Equal values may be shown once. Where a name gives a salt, the structure may show the parent alone.

Tests used:
[1] = Osmolality measurements: contribution of amphipathic base to osmotic pressure of salt solutions (aggregation); format: physicochemical; conditions: for mOsm versos mM (slope); extent of dissociation: slope of osmolality (mOsm) versus concentration (mM); for % of expected value of osmolality contribution / Level of aggregation / Expected contribution of 25 mM amphipathic base to osmolality (calibrated in DDW and NaCl): 25 mM base; for Expected contribution of 25 mM amphipathic base to osmolality (calibrated in DDW and NaCl): pure water or NaCl solutions; for Osmolality of agent: 25 mM in DDW (pure water)
Experimental: Level of aggregation of the exemplified agents was evaluated by measuring osmotic pressure. Osmotic pressure is a colrgative property, depending on the actual concentration (particles per unit volume) of a solution. Thus, in case of aggregate formation in a solution, the actual concentration of the solution will be lower than the theoretical concentration of the solution, which will be evident by a lower than expected osmotic pressure.
For osmotic pressure measurements, double distilled water (DDW) obtained using Water ProPlus (Labconco, Kansas City, Mo., USA) was used for all solutions. Osmolality was measured using a 5500 Vapor Pressure Osmometer (Wescor Inc., Logan, Utah, USA) or freezing point osmometer μOSMETIE MicroOsmometer of Precision Systems (atich, MA, USA). Calibration curves of TMN, AO, and BUP osmolality in the range of 10-40 mM in pure water were used to describe the relationship between concentration and osmotic pressure of all compounds.
The effect of salts on the osmotic pressure of the amphipathic base (25 mM) was also examined by comparing the effect of NaCl with that of various ammonium salts. As a control, the osmotic pressure of each salt alone was also measured.

[2] = Conductivity measurements of salts; format: physicochemical; conditions: salt 50 mM in DDW
Experimental: Solutions in concentration range of 0.5-50 mM of NaCl and ammonium salts were prepared in DDW and measured in an “Oyster” conductivity meter (KTech).

[3] = Partition coefficient (Kp) octanol/water; format: physicochemical
Source text: Other parameters that may influence kinetics of release include the lipophilicity of the loaded agent and the liposome trapped volume. The higher the lipophilicity, the faster will be the release rate of the agent from the liposome. The lipophilicity of a compound may be reflected by its partition coefficient (Kp) is between octanol and water.

[4] = Aggregation of BUP and AO with dextran sulfate (DS); format: physicochemical; conditions: for Mole ratio weak base/DS at which aggregation (precipitation) starts: dextran sulfate
Source text: The dependence of the aggregation process on the loaded molecule was shown by the examples of BUP and AO. […] This however can be modified through the use of sodium salt of dextran sulfate as an additional counter ion. […]

[5] = Kinetics of TMN leakage from egg PC MLV; conditions: for Leakage from liposomes: 4° C.

% of expected value of osmolality contribution ([1]; ammonium chloride 40 mM)	% of expected value of osmolality contribution ([1]; ammonium chloride 80 mM)	Level of aggregation ([1]; ammonium chloride 80 mM)	% of expected value of osmolality contribution ([1]; ammonium citrate 40 mM)	% of expected value of osmolality contribution ([1]; ammonium citrate 80 mM)	Level of aggregation ([1]; ammonium citrate 80 mM)	% of expected value of osmolality contribution ([1]; ammonium glucuronate 40 mM)	% of expected value of osmolality contribution ([1]; ammonium glucuronate 80 mM)	Level of aggregation ([1]; ammonium glucuronate 80 mM)	% of expected value of osmolality contribution ([1]; ammonium phosphate 40 mM)	% of expected value of osmolality contribution ([1]; ammonium phosphate 80 mM)	% of expected value of osmolality contribution ([1]; ammonium sulfate 40 mM)	% of expected value of osmolality contribution ([1]; ammonium sulfate 80 mM)	Level of aggregation ([1]; ammonium sulfate 80 mM)	Expected contribution of 25 mM amphipathic base to osmolality (calibrated in DDW and NaCl) [1]	Osmolality of agent [1]	Measured contribution of 25 mM base to osmolality ([1]; ammonium chloride 40 mM)	Measured contribution of 25 mM base to osmolality ([1]; ammonium chloride 80 mM)	Measured contribution of 25 mM base to osmolality ([1]; ammonium citrate 40 mM)	SMILES	mOsm versos mM (slope); extent of dissociation [1]	also measured
																			N.N.O=P(O)(O)O [(NH4)2HPO4, ammonium phosphate, dibasic]	2.83	
																			N.N.O=S(=O)(O)O [(NH4)2SO4, ammonium sulfate]	2.97	
																			N.N.N.O=C(O)CC(O)(CC(=O)O)C(=O)O [(NH4)3 citrate, ammonium citrate, tribasic]	3.45	Conductivity [2]: 11.96
100%	100%	None//None	96%	90%	Low	100%	100%	None//None	92%	79%	94%	85%	Low	48±4 mOsm and 48 mOsm	48 mOsm	49 mOsm	51 mOsm and 48 mOsm	46 mOsm	CN(C)c1ccc2cc3ccc(N(C)C)cc3nc2c1 [AO, Acridine orange hemi(zinc chloride) salt]		Measured contribution of 25 mM base to osmolality ([1]; ammonium citrate 80 mM): 43 mOsm; Measured contribution of 25 mM base to osmolality ([1]; ammonium glucuronate 40 mM): 48 mOsm; Measured contribution of 25 mM base to osmolality ([1]; ammonium glucuronate 80 mM): 50 mOsm and 48 mOsm; Measured contribution of 25 mM base to osmolality ([1]; ammonium phosphate 40 mM): 44 mOsm; Measured contribution of 25 mM base to osmolality ([1]; ammonium phosphate 80 mM): 41 mOsm and 38 mOsm; Measured contribution of 25 mM base to osmolality ([1]; ammonium sulfate 40 mM): 45 mOsm; Measured contribution of 25 mM base to osmolality ([1]; ammonium sulfate 80 mM): 44 mOsm and 41 mOsm; Partition coefficient (Kp) octanol/water ([3]; pH 5.5, 120 mM (NH4)2SO4): 9.00 (at pH 5.5, 120 mM (NH4)2SO4); Ratio at saturation of precipitation ([4]; DS 8,000 Da): 40; Ratio at saturation of precipitation ([4]; DS 10,000 Da): 50; Ratio at which aggregation reaches a plateau ([4]; DS 10,000 Da): 50 nmole AO or BUP per 1 mmole DS; Mole ratio weak base/DS at which aggregation (precipitation) starts [4]: 1
97%	100%	None//None	100%	91%	None	100%	100%	None//None	97%	84%	97%	88%	None	32±5 mOsm and 32 mOsm	32 mOsm	31 mOsm	30 mOsm and 32 mOsm	32 mOsm	CCCCN1CCCCC1C(=O)Nc1c(C)cccc1C (stereo not drawn) [BUP, bupivacaine]		Level of aggregation ([1]; ammonium phosphate 80 mM): None//|Low; Measured contribution of 25 mM base to osmolality ([1]; ammonium citrate 80 mM): 25 mOsm and 29 mOsm; Measured contribution of 25 mM base to osmolality ([1]; ammonium glucuronate 40 mM): 33 mOsm; Measured contribution of 25 mM base to osmolality ([1]; ammonium glucuronate 80 mM): 31 mOsm and 32 mOsm; Measured contribution of 25 mM base to osmolality ([1]; ammonium phosphate 40 mM): 30 mOsm; Measured contribution of 25 mM base to osmolality ([1]; ammonium phosphate 80 mM): 30 mOsm and 27 mOsm; Measured contribution of 25 mM base to osmolality ([1]; ammonium sulfate 40 mM): 31 mOsm; Measured contribution of 25 mM base to osmolality ([1]; ammonium sulfate 80 mM): 29 mOsm and 28 mOsm; Partition coefficient (Kp) octanol/water ([3]; pH 6, 250 mM (NH4)2SO4): 0.35 (at pH 6, 250 mM (NH4)2SO4); Ratio at which aggregation reaches a plateau ([4]; DS 10,000 Da): 50 nmole AO or BUP per 1 mmole DS; Mole ratio weak base/DS at which aggregation (precipitation) starts [4]: 1.0
																			N.O=C[C@H](O)[C@@H](O)[C@H](O)[C@H](O)C(=O)O [NH4 glucuronate, Ammonium glucuronate]	1.62	Conductivity [2]: 3.88 mS/cm
																			Cl.N [NH4Cl, Ammonium chloride]	1.96	
																			[Cl-].[Na+] [NaCl]	2.00	

SMILES	% of expected value of osmolality contribution ([1]; ammonium chloride 40 mM)	% of expected value of osmolality contribution ([1]; ammonium chloride 80 mM)	Level of aggregation ([1]; ammonium chloride 80 mM)	% of expected value of osmolality contribution ([1]; ammonium citrate 40 mM)	% of expected value of osmolality contribution ([1]; ammonium citrate 80 mM)	Level of aggregation ([1]; ammonium citrate 80 mM)	% of expected value of osmolality contribution ([1]; ammonium glucuronate 40 mM)	% of expected value of osmolality contribution ([1]; ammonium glucuronate 80 mM)	Level of aggregation ([1]; ammonium glucuronate 80 mM)	% of expected value of osmolality contribution ([1]; ammonium phosphate 40 mM)	% of expected value of osmolality contribution ([1]; ammonium phosphate 80 mM)	% of expected value of osmolality contribution ([1]; ammonium sulfate 40 mM)	% of expected value of osmolality contribution ([1]; ammonium sulfate 80 mM)	Level of aggregation ([1]; ammonium sulfate 80 mM)	Expected contribution of 25 mM amphipathic base to osmolality (calibrated in DDW and NaCl) [1]	Osmolality of agent [1]	Measured contribution of 25 mM base to osmolality ([1]; ammonium chloride 40 mM)	Measured contribution of 25 mM base to osmolality ([1]; ammonium chloride 80 mM)	Measured contribution of 25 mM base to osmolality ([1]; ammonium citrate 40 mM)	mOsm versos mM (slope); extent of dissociation [1]	also measured
CC1(C)CC(N)CC(C)(C)N1[O] [TMN, 2,2,6,6-tetramethylpiperidine-4-amino-1-oxyl]	100%	60%	medium	62%	20%	high	95%	90%	None	71%	20%	19%	0%	complete	21 mOsm	21 mOsm	21 mOsm	12 mOsm	13 mOsm		Level of aggregation ([1]; ammonium chloride 40 mM): Low; Level of aggregation ([1]; ammonium citrate 40 mM): Medium; Level of aggregation ([1]; ammonium glucuronate 40 mM): None; Level of aggregation ([1]; ammonium phosphate 40 mM): Medium; Level of aggregation ([1]; ammonium phosphate 80 mM): high; Level of aggregation ([1]; ammonium sulfate 40 mM): High; Aggregation in NaCl solutions ([1]; NaCl): lack of aggregate formation; Ranking of extent of aggregation with ammonium salts ([1]; Tables Ia, Ib, Ic): ammonium sulfate>ammonium citrate=ammonium phosphate>>ammonium chloride>ammonium glucuronate; Measured contribution of 25 mM base to osmolality ([1]; ammonium citrate 80 mM): 5 mOsm; Measured contribution of 25 mM base to osmolality ([1]; ammonium glucuronate 40 mM): 20 mOsm; Measured contribution of 25 mM base to osmolality ([1]; ammonium glucuronate 80 mM): 19 mOsm; Measured contribution of 25 mM base to osmolality ([1]; ammonium phosphate 40 mM): 15 mOsm; Measured contribution of 25 mM base to osmolality ([1]; ammonium phosphate 80 mM): 5 mOsm; Measured contribution of 25 mM base to osmolality ([1]; ammonium sulfate 40 mM): 4 mOsm; Measured contribution of 25 mM base to osmolality ([1]; ammonium sulfate 80 mM): 0 mOsm; Partition coefficient (Kp) octanol/water ([3]; pH 7, 150 mM (NH4)2SO4): 0.04 (at pH 7, 150 mM (NH4)2SO4); Leakage from liposomes ([5]; ammonium chloride gradient): less than 10%; Leakage from liposomes ([5]; ammonium glucuronate gradient): less than 10%; Leakage from liposomes ([5]; ammonium sulfate gradient, until 144 hr): no TV leakage was observed; Order of encapsulation stability by ammonium salt ([5]; 25° C. and 37° C.): (NH4)2SO4>>NH4Cl>NH4 glucuronate
